The target of assay [1] is Mitogen-activated protein kinase 10 (Homo sapiens, UniProt P53779). As to the kind of experiment: Dose response biochemical screening assay for inhibitors of c-Jun N-Terminal Kinase 3 (JNK3). [Related pubchem assays: 746 ].
A short description of assay [2]: P. falciparum late gametocyte killing, dose response, luminescence (AID 1117278).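 Also: gametocytes exposed to compound for 24 hours.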 It is filed as functional, cell-based.
A short description of assay [3]: Jurkat T cell cytotoxicity, dose response, cytotoxicity control for P. falciparum gametocyte viability project, luminescence (AID 1117277).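 Also: potency reflects loss of cellular ATP meaning fewer viable cells.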 It is filed as functional, cell-based.
The nature of a further assay: cells. The assay is classed as functional.
Another assay has as its target Estrogen receptor beta (Homo sapiens, UniProt Q92731).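 Also: recombinant ER-beta bound to coactivator SRC1 peptide in presence of estradiol agonist; inhibitors block coactivator peptide binding and lower the FRET signal.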
In the next assay the target is Nonstructural protein 1 (Influenza A virus, UniProt Q194T2). The assay is classed as functional, Influenza A virus (A/California/07/2009(H1N1)).
Sequence of Nonstructural protein 1 (Q194T2 whole entry): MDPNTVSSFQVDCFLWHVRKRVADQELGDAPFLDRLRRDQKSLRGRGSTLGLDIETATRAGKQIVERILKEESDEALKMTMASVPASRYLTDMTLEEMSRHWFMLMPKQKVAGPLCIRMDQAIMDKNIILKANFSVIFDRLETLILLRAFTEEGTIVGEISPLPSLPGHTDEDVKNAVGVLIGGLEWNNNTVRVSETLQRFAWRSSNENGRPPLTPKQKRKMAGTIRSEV
The target in assay [4] is T1, Polyadenylate-binding protein 1 (Homo sapiens, UniProt P11940). As to the kind of experiment: PABP1 MLLE–PAM2 interaction inhibitors, dose response, miRNA deadenylation inhibitor project, biochemical, fluorescence polarization, Cy5-PAM2 peptide, secondary (AID 602260). The assay is classed as functional. Particulars: read-out: IC50_Mean.
T1 sequence (P11940 whole entry): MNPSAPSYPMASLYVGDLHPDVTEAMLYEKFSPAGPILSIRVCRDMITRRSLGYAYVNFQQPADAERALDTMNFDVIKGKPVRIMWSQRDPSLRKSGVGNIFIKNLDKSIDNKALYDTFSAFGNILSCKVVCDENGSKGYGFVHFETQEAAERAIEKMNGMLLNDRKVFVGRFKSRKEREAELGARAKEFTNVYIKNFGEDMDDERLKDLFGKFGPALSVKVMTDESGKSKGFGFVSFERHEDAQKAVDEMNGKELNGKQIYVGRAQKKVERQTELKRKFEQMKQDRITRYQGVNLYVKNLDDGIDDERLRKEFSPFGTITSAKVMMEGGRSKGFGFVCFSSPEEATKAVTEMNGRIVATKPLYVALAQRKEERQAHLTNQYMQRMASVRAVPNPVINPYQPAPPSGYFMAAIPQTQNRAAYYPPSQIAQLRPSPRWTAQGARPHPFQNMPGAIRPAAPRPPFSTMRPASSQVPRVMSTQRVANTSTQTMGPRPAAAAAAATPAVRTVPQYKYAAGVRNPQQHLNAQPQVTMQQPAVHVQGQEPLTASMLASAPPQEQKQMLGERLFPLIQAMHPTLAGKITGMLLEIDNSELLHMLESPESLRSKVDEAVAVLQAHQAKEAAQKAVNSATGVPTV
The target of assay [5] is T1, Polyadenylate-binding protein 1. As to the kind of experiment: PABP1 MLLE–PAM2 binding inhibitor potency, dose response, biochemical, fluorescence polarization, FITC-PAM2 peptide (AID 602259). The conditions noted are these: read-out: IC50_Mean. It is filed as functional. In general terms: Polarisation of emitted light reports the rotation of a fluorescent probe.
For assay [6], the target named is T2, Calpain-2 catalytic subunit (Sus scrofa, UniProt P43367).
T2 sequence (P43367 whole entry): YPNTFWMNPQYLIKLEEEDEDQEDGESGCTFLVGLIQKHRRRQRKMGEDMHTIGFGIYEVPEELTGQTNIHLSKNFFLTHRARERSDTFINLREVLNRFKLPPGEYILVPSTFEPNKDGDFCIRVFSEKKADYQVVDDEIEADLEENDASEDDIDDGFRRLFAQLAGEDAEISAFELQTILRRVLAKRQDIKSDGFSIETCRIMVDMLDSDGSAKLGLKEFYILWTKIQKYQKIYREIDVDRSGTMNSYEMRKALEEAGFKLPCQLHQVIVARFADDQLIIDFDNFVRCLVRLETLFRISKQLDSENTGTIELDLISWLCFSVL
As to the kind of experiment: pig calpain II inhibitor potency, dose response, biochemical, fluorogenic peptide substrate (AID 1420). It is filed as functional.

Another assay relates to INS1. As to the kind of experiment: beta cell apoptosis inhibitors, cytokine rescue, dose response, luminescence, retest (AID 449756).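 Also: cell death triggered by IL-1 beta plus TNF-alpha plus IFN-gamma mixture; protective hits raise ATP signal compared with cytokine alone wells.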 It is filed as functional, cell-based. The conditions noted are these: Rattus norvegicus.
Assay [7] concerns the target Induced myeloid leukemia cell differentiation protein Mcl-1 (Homo sapiens, UniProt Q07820). The assay is classed as functional.
The next assay deals with T3, ORF 73 (Human herpesvirus 8, UniProt O40947).
T3 sequence (O40947 whole entry): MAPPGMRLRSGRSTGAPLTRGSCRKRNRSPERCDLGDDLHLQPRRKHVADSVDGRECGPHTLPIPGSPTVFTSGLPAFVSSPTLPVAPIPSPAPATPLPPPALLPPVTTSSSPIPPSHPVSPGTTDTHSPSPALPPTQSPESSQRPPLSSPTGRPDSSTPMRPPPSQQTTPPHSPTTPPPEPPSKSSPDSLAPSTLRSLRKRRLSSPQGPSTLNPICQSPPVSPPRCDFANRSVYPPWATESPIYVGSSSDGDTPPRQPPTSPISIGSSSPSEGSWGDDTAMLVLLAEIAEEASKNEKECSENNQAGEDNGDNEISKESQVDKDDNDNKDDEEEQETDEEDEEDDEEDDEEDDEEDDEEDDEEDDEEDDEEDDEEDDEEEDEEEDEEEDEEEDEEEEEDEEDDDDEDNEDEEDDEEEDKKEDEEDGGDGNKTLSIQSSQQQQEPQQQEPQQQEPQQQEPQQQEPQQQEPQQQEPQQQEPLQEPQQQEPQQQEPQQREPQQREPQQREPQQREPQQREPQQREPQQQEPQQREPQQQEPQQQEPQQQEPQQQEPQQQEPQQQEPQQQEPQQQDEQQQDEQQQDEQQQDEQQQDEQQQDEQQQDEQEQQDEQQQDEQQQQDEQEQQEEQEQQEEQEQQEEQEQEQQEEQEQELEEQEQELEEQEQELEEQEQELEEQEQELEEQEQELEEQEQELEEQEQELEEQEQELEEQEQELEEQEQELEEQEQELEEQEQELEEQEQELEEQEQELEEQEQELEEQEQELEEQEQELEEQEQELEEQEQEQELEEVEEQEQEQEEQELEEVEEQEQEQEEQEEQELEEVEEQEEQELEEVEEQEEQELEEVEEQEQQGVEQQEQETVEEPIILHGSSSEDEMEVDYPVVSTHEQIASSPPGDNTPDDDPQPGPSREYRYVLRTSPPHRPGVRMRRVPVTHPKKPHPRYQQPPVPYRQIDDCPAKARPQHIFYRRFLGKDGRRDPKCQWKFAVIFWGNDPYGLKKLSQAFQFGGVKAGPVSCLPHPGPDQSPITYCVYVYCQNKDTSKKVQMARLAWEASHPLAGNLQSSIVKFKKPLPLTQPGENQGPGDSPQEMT
Nature of the assay: inhibitors of C-LANA binding to LBS DNA, dose response, biochemical, fluorescence polarization, cherry-picked samples (AID 504725).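 Also: fluorescence polarization of a labeled DNA duplex reporting LANA DNA binding; potency is for inhibitors that block LANA binding to the DNA.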 Also noted: species or system Human gammaherpesvirus 8.

The target in assay [8] is Eukaryotic translation initiation factor 4E (Mus musculus, UniProt P63073). Nature of the assay: eIF4E–eIF4G protein interaction inhibitors, dose response, biochemical, TR-FRET (AID 855).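 Also: potency for disrupting eIF4E binding to eIF4GI seen as loss of FRET.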 It is filed as functional. A general note: In TR-FRET formats the signal depends on donor and acceptor labels being close together.
Sequence of Eukaryotic translation initiation factor 4E (P63073 whole entry): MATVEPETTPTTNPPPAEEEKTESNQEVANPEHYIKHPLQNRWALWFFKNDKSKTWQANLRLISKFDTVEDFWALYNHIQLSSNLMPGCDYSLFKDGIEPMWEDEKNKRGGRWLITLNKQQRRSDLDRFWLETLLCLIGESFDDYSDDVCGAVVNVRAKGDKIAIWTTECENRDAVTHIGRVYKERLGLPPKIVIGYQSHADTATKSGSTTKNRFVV
For assay [9], the target named is T4, Small ubiquitin-related modifier 1 (Homo sapiens, UniProt P63165). Nature of the assay: inhibitors of SUMO1 peptide binding, dose response, biochemical, fluorescence polarization, uHTS hits (AID 624382). It is filed as functional. Particulars: read-out: IC50_Mean.
T4 sequence (P63165 whole entry): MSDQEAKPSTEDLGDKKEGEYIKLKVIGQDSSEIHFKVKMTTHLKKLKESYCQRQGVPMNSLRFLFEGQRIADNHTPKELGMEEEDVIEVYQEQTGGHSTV
Assay [10] has as its target T4, Small ubiquitin-related modifier 1. Nature of the assay: inhibitors of SUMO1 partner interactions, dose response, biochemical, FRET (AID 624383). It is filed as functional. Particulars: read-out: IC50_Mean.
The target of assay [11] is T5, Rac GTPase-activating protein 1 (Homo sapiens, UniProt Q9H0H5).
T5 sequence (Q9H0H5 whole entry): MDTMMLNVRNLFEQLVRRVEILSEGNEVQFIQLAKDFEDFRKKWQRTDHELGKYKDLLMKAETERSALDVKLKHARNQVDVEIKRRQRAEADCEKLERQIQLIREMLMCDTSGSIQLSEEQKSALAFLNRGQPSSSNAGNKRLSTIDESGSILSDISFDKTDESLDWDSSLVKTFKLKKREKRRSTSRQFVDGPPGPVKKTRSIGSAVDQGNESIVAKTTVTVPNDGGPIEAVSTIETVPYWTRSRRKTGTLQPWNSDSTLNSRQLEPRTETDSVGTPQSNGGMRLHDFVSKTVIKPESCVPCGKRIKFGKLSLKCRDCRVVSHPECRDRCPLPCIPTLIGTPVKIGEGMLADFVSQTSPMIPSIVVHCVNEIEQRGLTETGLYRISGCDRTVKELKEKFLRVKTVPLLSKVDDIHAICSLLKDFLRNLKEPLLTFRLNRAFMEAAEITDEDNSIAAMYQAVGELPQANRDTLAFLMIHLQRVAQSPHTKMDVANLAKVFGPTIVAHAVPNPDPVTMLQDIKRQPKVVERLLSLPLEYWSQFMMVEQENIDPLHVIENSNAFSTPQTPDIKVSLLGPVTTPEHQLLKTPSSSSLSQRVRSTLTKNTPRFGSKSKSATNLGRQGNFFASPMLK
Nature of the assay: MgcRacGAP GTPase-activating activity inhibitors, confirmation, biochemical, ADP Hunter fluorescence, primary and confirmatory (AID 624330). The assay is classed as functional.

The target in assay [12] is T6, Histone-lysine N-methyltransferase NSD2 (Homo sapiens, UniProt O96028).
T6 sequence (O96028 whole entry): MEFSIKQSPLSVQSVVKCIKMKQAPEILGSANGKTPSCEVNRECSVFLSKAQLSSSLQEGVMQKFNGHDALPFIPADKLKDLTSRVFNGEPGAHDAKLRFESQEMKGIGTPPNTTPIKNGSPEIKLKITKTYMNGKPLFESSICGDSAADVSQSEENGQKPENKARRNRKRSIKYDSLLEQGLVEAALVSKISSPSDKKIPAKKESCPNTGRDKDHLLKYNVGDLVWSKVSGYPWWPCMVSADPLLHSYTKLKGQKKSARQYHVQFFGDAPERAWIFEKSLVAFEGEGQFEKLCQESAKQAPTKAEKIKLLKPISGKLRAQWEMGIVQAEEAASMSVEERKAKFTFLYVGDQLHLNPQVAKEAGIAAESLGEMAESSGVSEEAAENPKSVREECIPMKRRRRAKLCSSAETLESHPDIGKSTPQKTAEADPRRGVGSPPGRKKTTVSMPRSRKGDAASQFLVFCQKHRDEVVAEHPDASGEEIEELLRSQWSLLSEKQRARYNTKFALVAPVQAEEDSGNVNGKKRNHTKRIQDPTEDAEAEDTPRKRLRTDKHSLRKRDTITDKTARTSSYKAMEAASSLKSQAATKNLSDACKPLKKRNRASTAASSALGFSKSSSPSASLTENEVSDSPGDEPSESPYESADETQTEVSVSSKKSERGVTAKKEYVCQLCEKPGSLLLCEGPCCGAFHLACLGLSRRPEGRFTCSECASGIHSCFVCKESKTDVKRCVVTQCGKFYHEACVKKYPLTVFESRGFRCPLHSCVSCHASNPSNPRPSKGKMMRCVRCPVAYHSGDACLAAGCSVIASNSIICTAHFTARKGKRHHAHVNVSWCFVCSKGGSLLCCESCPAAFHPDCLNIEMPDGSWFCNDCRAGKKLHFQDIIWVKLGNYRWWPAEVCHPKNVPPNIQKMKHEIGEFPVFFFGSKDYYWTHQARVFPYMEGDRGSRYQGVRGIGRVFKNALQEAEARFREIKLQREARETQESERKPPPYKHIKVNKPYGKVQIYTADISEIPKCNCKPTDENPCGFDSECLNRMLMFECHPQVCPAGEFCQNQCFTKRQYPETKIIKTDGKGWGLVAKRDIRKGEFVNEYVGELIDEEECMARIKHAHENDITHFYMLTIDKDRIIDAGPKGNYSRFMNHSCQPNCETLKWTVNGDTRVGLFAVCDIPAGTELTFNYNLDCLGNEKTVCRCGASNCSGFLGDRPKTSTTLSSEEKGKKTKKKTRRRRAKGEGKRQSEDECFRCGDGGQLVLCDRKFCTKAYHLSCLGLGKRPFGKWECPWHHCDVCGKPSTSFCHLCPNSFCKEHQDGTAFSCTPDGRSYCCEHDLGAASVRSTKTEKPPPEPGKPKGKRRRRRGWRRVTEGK
It is filed as biochemical.

Assay [13] is described as follows: THP-1 cell cytotoxicity, dose response, cytotoxicity control for Vif-APOBEC3G degradation inhibitor project, THP-1 cells (AID 1117359). It is filed as functional. The conditions noted are these: Human immunodeficiency virus 1, THP-1.
Assay [14] is described as follows: inhibitors of Vif binding to APOBEC3G peptide, primary screen, biochemical, TR-FRET, GST-Vif 1-94, biotin-A3G peptide, dose response retest (AID 1117319).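 Also: TR-FRET signal of purified GST-Vif binding a biotinylated A3G peptide; inhibitors lower the FRET signal by blocking Vif and A3G binding.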 It is filed as functional.

Among the data in ChEMBL document CHEMBL1201862, “PubChem BioAssay data set” (2004) are IC50, AC50 and CC50 values, retold here.

Molecules are shown by their SMILES. Calls of active or inactive are those of the source. Where only a bound is given, the exact number is not on record here.

Sequence of Estrogen receptor beta (Q92731 whole entry): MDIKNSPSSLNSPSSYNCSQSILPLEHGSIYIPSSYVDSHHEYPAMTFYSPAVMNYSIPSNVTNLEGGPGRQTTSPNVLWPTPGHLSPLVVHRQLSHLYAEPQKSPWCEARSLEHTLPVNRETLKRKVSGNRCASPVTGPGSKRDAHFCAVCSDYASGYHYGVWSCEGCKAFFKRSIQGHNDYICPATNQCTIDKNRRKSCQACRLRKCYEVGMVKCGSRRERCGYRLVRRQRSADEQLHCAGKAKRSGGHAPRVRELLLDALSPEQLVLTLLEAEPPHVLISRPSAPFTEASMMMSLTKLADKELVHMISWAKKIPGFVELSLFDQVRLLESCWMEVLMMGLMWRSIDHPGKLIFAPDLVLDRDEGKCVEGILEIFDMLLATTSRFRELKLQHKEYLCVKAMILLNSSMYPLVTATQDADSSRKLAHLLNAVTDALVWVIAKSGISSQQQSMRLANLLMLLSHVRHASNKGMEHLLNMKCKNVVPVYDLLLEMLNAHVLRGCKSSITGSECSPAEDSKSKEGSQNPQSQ
Sequence of Mitogen-activated protein kinase 10 (P53779 whole entry): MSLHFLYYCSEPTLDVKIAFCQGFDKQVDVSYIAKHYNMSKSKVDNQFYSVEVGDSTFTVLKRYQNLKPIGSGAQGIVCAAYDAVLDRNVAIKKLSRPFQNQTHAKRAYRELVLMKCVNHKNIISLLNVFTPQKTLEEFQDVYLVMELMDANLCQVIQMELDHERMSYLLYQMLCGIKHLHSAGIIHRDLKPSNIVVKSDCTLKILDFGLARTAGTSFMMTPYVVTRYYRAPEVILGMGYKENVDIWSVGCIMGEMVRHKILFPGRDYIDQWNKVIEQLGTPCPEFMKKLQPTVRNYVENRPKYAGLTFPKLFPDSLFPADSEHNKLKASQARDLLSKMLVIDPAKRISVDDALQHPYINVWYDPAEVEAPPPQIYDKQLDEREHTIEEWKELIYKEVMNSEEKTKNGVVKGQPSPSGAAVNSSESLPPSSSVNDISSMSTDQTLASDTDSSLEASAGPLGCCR
Sequence of Induced myeloid leukemia cell differentiation protein Mcl-1 (Q07820 whole entry): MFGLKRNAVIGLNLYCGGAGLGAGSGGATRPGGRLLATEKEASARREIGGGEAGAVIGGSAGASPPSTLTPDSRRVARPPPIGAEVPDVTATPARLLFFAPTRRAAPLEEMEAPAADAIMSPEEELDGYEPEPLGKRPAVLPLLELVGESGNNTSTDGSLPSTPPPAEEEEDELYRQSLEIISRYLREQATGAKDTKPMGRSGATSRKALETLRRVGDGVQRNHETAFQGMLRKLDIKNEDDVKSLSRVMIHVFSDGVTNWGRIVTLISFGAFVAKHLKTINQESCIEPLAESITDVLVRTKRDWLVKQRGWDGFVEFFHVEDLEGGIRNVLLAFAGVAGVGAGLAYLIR

On to `Cc1ccc(Nc2cc(-n3nc(C)cc3C)ncn2)cc1`, for which the IC50 in assay [1] is 13.4 µM (not active).

For `N#Cc1c(SCC(N)=O)nc2c(c1-c1ccncc1)CCCC2`, the IC50 is > 109 µM (inactive) in assay [2] and > 83.3 µM (inactive) in assay [3].

On to `Cc1ccccc1NC(=O)c1[nH]cnc1C(=O)NCc1ccccc1`, for which the IC50 in [1] is > 31 µM (not active); in “cells”, 10.3 µM (active).

`CSc1ccccc1NC(=O)c1ccccc1N(Cc1ccccc1)S(C)(=O)=O`: on Estrogen receptor beta, the IC50 was > 50 µM (not active).

With `CCOC(=O)c1c(N)sc(=S)c2c1CCC2`, the IC50 on Estrogen receptor beta is > 50 µM (not active); on Nonstructural protein 1 it was > 100 µM (active); in assay [4], > 66 µM (inactive); in assay [5], > 66 µM (inactive).

Consider `O=C(CN1CC[n+]2c(-c3cccs3)csc21)c1ccc(-c2ccccc2)cc1`, for which the IC50 in assay [6] is 22.1 µM (not active); in assay [2], > 109 µM (inactive); in [3], > 83.3 µM (inactive). Further, in the assay with INS1, the AC50 – broadly, the concentration at which the activity in the assay is half-maximal – is 2.39 µM (active).

On to `CSc1ccc(/C=N/Nc2cccc(C(=O)O)c2)cc1`, for which the IC50 in assay [7] was 2.19 µM (active); in [8], 50 µM (inactive); in assay [9], > 66.6 µM (inactive); in assay [10], 6.71 µM (active); in assay [11], 83.5 µM (active). Also, the AC50 is 19.8 µM (active) at ORF 73 and 2.93 µM (active) in [12]. The half-maximal cytotoxic concentration (CC50) (commonly the concentration giving 50% cytotoxicity) in assay [13] was > 40 µM (active).

For the molecule `O=C(Cc1cccs1)Nc1nncs1`, the IC50 on Estrogen receptor beta was 17 µM (active).

Consider `CCn1c(S)nnc1Cc1c(C)[nH]c2ccccc12`, for which, in [14], the IC50 is > 100 µM (active).

In the case of `Cc1ccc(-c2csc3nc(CN(C)Cc4ccccc4)nc(O)c23)cc1`, the IC50 in assay [2] was > 109 µM (inactive); in [3], > 83.2 µM (inactive).
